Laboratory results as given in patent US20200172549A1, “NOVEL CHLORIN E6-CURCUMIN DERIVATIVES, PREPARATION METHOD THEREOF, AND PHARMACEUTICAL COMPOSITION CONTAINING THE SAME FOR TREATMENT OF CANCER” (DONG SUNG PHARM. CO., LTD., priority 2017, published 2020).

Assays:
[1] = Dark cytotoxicity, MTT assay, AsPC-1; assay type: cell-based; conditions: human, AsPC-1 pancreatic cancer cells, 3 h, no light, 72 h incubation, read-out: Cell viability, Dark Cytotoxicity against AsPC-1; for viability at 3.12 μM: 3.12 μM photosensitizer; for viability at 6.25 μM: 6.25 μM photosensitizer; for viability at 12.5 μM: 12.5 μM photosensitizer; for viability at 25 μM: 25 μM photosensitizer; for viability at 50 μM: 50 μM photosensitizer
Method: (§1) Dark cytotoxicity: The culture of AsPC-1 pancreatic cancer cells were grown in RPMI-1640 medium (life technologies corporation, USA) supplemented with 10% heat-inactivated fetal bovine serum (life technologies corporation, USA) and 1 penicillin (life technologies corporation, USA), whereas MIA-paca2 and PANC-1 cells were grown in DMEM. The MTT assay was used to assess the cell viability of AsPC-1, MIA-paca2, PANC-1 cells. The cells attached to a 96-well plate (5,000 cells/well) were treated with 3.125 μM, 6.25 μM, 12.5 μM, 25 μM, 50 μM of photosensitizers, 7, 10, 13, 16, and 3 for 3 h. The cells were then incubated for 72 h at 37° C. in a 5% CO2 incubator and exposed to MTT [3-(4,5-dimethylthiazol-2-yl)-2,5-diphenyl-tetrazolium bromide] (250 μg/ml) for 3 h. The solution was changed to 200 μl of dimethylsulfoxide (DMSO, Sigma). After 30 min incubation and shaking in microplate mixer, the optical density (OD) was measured using a microplate reader (Thermo Fisher scientific, USA) at 570 nm wavelength. The cell viability was calculated using the following formula: Cell viability (%)=Mean optical density of treated wells/Mean optical density of control wells×100.

[2] = Dark cytotoxicity, MTT assay, MIA-PaCa-2; assay type: cell-based; conditions: human, MIA-PaCa-2 cells, 3 h, no light, 72 h incubation, read-out: Cell viability, Dark cytotoxicity against MIA-PaCa-2; for viability at 3.12 μM: 3.12 μM photosensitizer; for viability at 6.25 μM: 6.25 μM photosensitizer; for viability at 12.5 μM: 12.5 μM photosensitizer; for viability at 25 μM: 25 μM photosensitizer; for viability at 50 μM: 50 μM photosensitizer
Method: as §1

PANC-1 = test: Phototoxicity (PDT), MTT assay, PANC-1; assay type: cell-based; conditions: for Cell viability, Phototoxicity against PANC-1: 3 h, 50 mW 0.09 J/cm^2 laser 100 sec, 72 h incubation; for inhibition at 25 µM: 25 μM concentration
Method: as §1, with “Phototoxicity: The culture” for “Dark cytotoxicity: The culture”, “USA) and 1% penicillin (life” for “USA) and 1 penicillin (life”, “3 h. The photosensitized cells were then irradiated with a 50 mW, 0.09 J/cm^2 laser for 100 sec. The cells” for “3 h. The cells”

[3] = tested on: AsPC-1 pancreatic cancer cells; test: Phototoxicity (PDT), MTT assay, AsPC-1; assay type: cell-based; conditions: for Cell viability, Phototoxicity against AsPC-1: 3 h, 50 mW 0.09 J/cm^2 laser 100 sec, 72 h incubation; for inhibition at 25 µM: 25 μM concentration
Method: as §1, with “Phototoxicity: The culture” for “Dark cytotoxicity: The culture”, “USA) and 1% penicillin (life” for “USA) and 1 penicillin (life”, “3 h. The photosensitized cells were then irradiated with a 50 mW, 0.09 J/cm^2 laser for 100 sec. The cells” for “3 h. The cells”

MIA-PaCa-2 = test: Phototoxicity (PDT), MTT assay, MIA-PaCa-2; assay type: cell-based; conditions: for Cell viability, Phototoxicity against MIA-PaCa-2: 3 h, 50 mW 0.09 J/cm^2 laser 100 sec, 72 h incubation
Method: as §1, with “Phototoxicity: The culture” for “Dark cytotoxicity: The culture”, “USA) and 1% penicillin (life” for “USA) and 1 penicillin (life”, “3 h. The photosensitized cells were then irradiated with a 50 mW, 0.09 J/cm^2 laser for 100 sec. The cells” for “3 h. The cells”

[4] = Photophysical properties (absorption) in DMSO; assay type: physicochemical
Method: The photophysical properties of Ce6-curcumin conjugates and dimethyl ester ce6 were analyzed in dimethyl sulfoxide (DMSO). All the photosensitizers 7, 10, 13, and 16 (Formula IV) effectively absorbed the red light compared to dimethyl ester ce6. The major soret peak at λmax=405-408 nm and Q-bands at 667 nm for the photosensitizers 7, 10, 13, and 16 (Formula IV) and Q band peak at 656 for dimethyl ester ce6.

[5] = Homo sapiens, PANC-1, with light
[6] = Homo sapiens, ASPC1, with light

Row | Compound | viability at 3.12 μM [1] [%] | viability at 6.25 μM [1] [%] | viability at 12.5 μM [1] [%] | viability at 25 μM [1] [%] | viability at 50 μM [1] [%] | viability at 3.12 μM [2] [%] | viability at 6.25 μM [2] [%] | viability at 12.5 μM [2] [%] | viability at 25 μM [2] [%] | viability at 50 μM [2] [%] | Cell viability, Phototoxicity against PANC-1 (PANC-1; 3.12 μM photosensitizer) [%] | Cell viability, Phototoxicity against PANC-1 (PANC-1; 6.25 μM photosensitizer) [%] | Cell viability, Phototoxicity against PANC-1 (PANC-1; 12.5 μM photosensitizer) [%] | Cell viability, Phototoxicity against PANC-1 (PANC-1; 25 μM photosensitizer) [%] | Cell viability, Phototoxicity against PANC-1 (PANC-1; 50 μM photosensitizer) [%] | Cell viability, Phototoxicity against AsPC-1 ([3]; 3.12 μM photosensitizer) [%] | Cell viability, Phototoxicity against AsPC-1 ([3]; 6.25 μM photosensitizer) [%] | Cell viability, Phototoxicity against AsPC-1 ([3]; 12.5 μM photosensitizer) [%] | Cell viability, Phototoxicity against AsPC-1 ([3]; 25 μM photosensitizer) [%] | Cell viability, Phototoxicity against AsPC-1 ([3]; 50 μM photosensitizer) [%] | other results
1 | C=Cc1c(C)c2cc3nc(c(CC(=O)O)c4[nH]c(cc5nc(cc1[nH]2)C(C)=C5CC)c(C)c4C(=O)O)[C@@H](CCC(=O)O)[C@@H]3C [Compound 3, Chlorin e6] | 98.8 | 101 | 100 | 99.6 | 100 | 98.8 | 101 | 100 | 99.6 | 100 | 104.37 | 82.85 | 30.03 | 8.57 | 7.61 | 91.05 | 76.65 | 66.31 | 37.32 | 17.52 | inhibition at 25 µM (PANC-1; [5]): 91%; inhibition at 25 µM [3, 6]: 63%
2 | C=Cc1c(C)c2cc3nc(c(CC(=O)OC)c4[nH]c(cc5nc(cc1[nH]2)C(C)=C5CC)c(C)c4C(=O)NCCCOCCOCCOCCCNC(=O)CCCC(=O)Oc1ccc(/C=C/C(=O)CC(=O)/C=C/c2ccc(O)c(OC)c2)cc1OC)[C@@H](CCC(=O)OC)[C@@H]3C [Compound 16, Chlorine e6-curcumin Conjugate (16)] | 99.9 | 103 | 103 | 80.4 | 84.1 | 122 | 121 | 113 | 101 | 72.8 | 97.36 | 89.19 | 59.07 | 24.07 | 20.24 | 87.29 | 45.79 | 32.67 | 25.46 | 27.83 | Cell viability, Phototoxicity against MIA-PaCa-2 (MIA-PaCa-2; 3.12 μM photosensitizer): 80.67%; Cell viability, Phototoxicity against MIA-PaCa-2 (MIA-PaCa-2; 6.25 μM photosensitizer): 17.62%; Cell viability, Phototoxicity against MIA-PaCa-2 (MIA-PaCa-2; 12.5 μM photosensitizer): 9.49%; Cell viability, Phototoxicity against MIA-PaCa-2 (MIA-PaCa-2; 25 μM photosensitizer): 8.03%; Cell viability, Phototoxicity against MIA-PaCa-2 (MIA-PaCa-2; 50 μM photosensitizer): 9.67%; inhibition at 25 µM (MIA-PaCa-2; Homo sapiens, MIA PaCa-2, 25 μM concentration, with light): 92%; inhibition at 25 µM (PANC-1; [5]): 76%; Q-band peak [4]: 667 nm; inhibition at 25 µM [3, 6]: 75%
3 | Dimethylester of Chlorine e6 [dimethyl ester ce6] |  |  |  |  |  |  |  |  |  |  |  |  |  |  |  |  |  |  |  |  | Q-band peak [4]: 656 nm
4 | C=Cc1c(C)c2cc3nc(c(CC(=O)OC)c4[nH]c(cc5nc(cc1[nH]2)C(C)=C5CC)c(C)c4C(=O)NCCCCCCNC(=O)CCCC(=O)Oc1ccc(/C=C/C(=O)CC(=O)/C=C/c2ccc(O)c(OC)c2)cc1OC)C(CCC(=O)OC)C3C (centres unmarked) [Compound 10, Chlorine e6-curcumin Conjugate (10)] | 96.5 | 98.2 | 98.5 | 95 | 78.8 | 89.7 | 82 | 75.1 | 66.4 | 48.7 | 99.74 | 96.76 | 81.89 | 81.07 | 73.00 | 85.90 | 75.12 | 34.05 | 26.11 | 23.17 | Cell viability, Phototoxicity against MIA-PaCa-2 (MIA-PaCa-2; 3.12 μM photosensitizer): 94.15%; Cell viability, Phototoxicity against MIA-PaCa-2 (MIA-PaCa-2; 6.25 μM photosensitizer): 90.03%; Cell viability, Phototoxicity against MIA-PaCa-2 (MIA-PaCa-2; 12.5 μM photosensitizer): 85.20%; Cell viability, Phototoxicity against MIA-PaCa-2 (MIA-PaCa-2; 25 μM photosensitizer): 64.88%; Cell viability, Phototoxicity against MIA-PaCa-2 (MIA-PaCa-2; 50 μM photosensitizer): 48.21%; Q-band peak [4]: 667 nm
5 | C=Cc1c(C)c2cc3nc(c(CC(=O)OC)c4[nH]c(cc5nc(cc1[nH]2)C(C)=C5CC)c(C)c4C(=O)NCCOCCOCCNC(=O)CCCC(=O)Oc1ccc(/C=C/C(=O)CC(=O)/C=C/c2ccc(O)c(OC)c2)cc1OC)C(CCC(=O)OC)C3C (centres unmarked) [Compound 13, Chlorine e6-curcumin Conjugate (13)] | 105 | 108 | 106 | 98.5 | 78.7 | 114 | 115 | 114 | 96.3 | 66.8 | 8.51 | 7.71 | 7.53 | 8.04 | 7.28 | 7.34 | 6.61 | 6.48 | 6.58 | 6.58 | Cell viability, Phototoxicity against MIA-PaCa-2 (MIA-PaCa-2; 3.12 μM photosensitizer): 4.68%; Cell viability, Phototoxicity against MIA-PaCa-2 (MIA-PaCa-2; 6.25 μM photosensitizer): 5.07%; Cell viability, Phototoxicity against MIA-PaCa-2 (MIA-PaCa-2; 12.5 μM photosensitizer): 4.93%; Cell viability, Phototoxicity against MIA-PaCa-2 (MIA-PaCa-2; 25 μM photosensitizer): 5.39%; Cell viability, Phototoxicity against MIA-PaCa-2 (MIA-PaCa-2; 50 μM photosensitizer): 5.90%; inhibition at 3 µM (MIA-PaCa-2; Homo sapiens, MIA PaCa-2, 3 μM concentration, with light): > 90%; inhibition at 3 µM (PANC-1; Homo sapiens, PANC-1, 3 μM concentration, with light): > 90%; Q-band peak [4]: 667 nm; inhibition at 3 µM ([3]; Homo sapiens, ASPC1, 3 μM concentration, with light): > 90%
